The text below walks through data of patent US20200317813A1, “TREATMENT AND DIAGNOSIS OF NON-PROLIFERATIVE DIABETIC RETINOPATHY” (Johann Wolfgang Goethe-Universitat Frankfurt am Main, priority 2016, published 2020).

The test system of test [1] is endothelial cell-pericyte co-cultures. The experiment in a line: Endothelial cell-pericyte co-culture: cadherin expression, lipid rafts, immunoprecipitation. To be noted: for N-cadherin expression in cocultured cells: 19,20-EDP/19,20-DHDP 3 μmol/L, VEGF 20 ng/ml; for N-cadherin expression in cocultured cells / association (co-precipitation) of PS1 with N-cadherin and VE-cadherin / association of p120 catenin with N- or VE-cadherin: 24 hours; for lipid raft association and membrane presentation of N-cadherin: endothelial cell-pericyte cocultures; for association (co-precipitation) of PS1 with N-cadherin and VE-cadherin / association of p120 catenin with N- or VE-cadherin: immunoprecipitation from co-cultures. It counts as cell-based, human. The procedure:
Human umbilical vein endothelial cells were cultured on fibronectin coated dishes until confluent. Then pericytes were seeded on top of the endothelial cells (PC:EC=1:5) and cocultured for a further 3 days. […] Cells were then lysed with HEPES buffer: 25 mmol/L HEPES pH 7.4, 150 mmol/L NaCl, complete protease inhibitor cocktail (Roche), and 1% digitonin (Sigma). Following centrifugation at 17,000 g for 10 minutes, supernatants (1 mg of protein) were pre-cleaned with protein A/G agarose (Pierce) for 30 mins. Supernatants were then incubated with anti-VE-cadherin (1:1000, AF1002 R&D systems, Abingdon, UK) or N-cadherin (1:1000, 33-3900 life technologies, CA, USA) antibodies at 4° C. for 2 hours and then treated with protein A/G agarose for a further 2 hours. Samples were washed with lysis buffer and analyzed by SDS-PAGE.
Samples were separated by SDS-PAGE and subjected to Western blotting as described^41. Membranes were blocked in 3% BSA in PBS, incubated with primary and horseradish peroxidase-conjugated secondary antibodies in blocking solution, and detection was performed with a Lumi-Light plus western blotting substrate (Roche).
Lipid rafts were isolated as described with modifications^42. Briefly, cells were harvested by scraping and homogenized at 4° C. in sodium carbonate (0.5 mol/L, pH11) using a glass homogenizer, followed by sonication. Then, equal amounts of protein were adjusted to a final sucrose concentration of 45% (final volume, 4 mL) and transferred to 12 mL ultracentrifuge tubes. A discontinuous sucrose gradient was then formed by sequentially overlaying 4 mL of 35% and 4 ml, of 5% sucrose. Samples were subjected to ultracentrifugation (35,000 rpm, 4° C. for 20 hours) using a Beckman SW 41 rotor (Krefeld, Germany). After centrifugation, twelve 1 mL fractions were collected using a capillary tube connected to a peristaltic pump, and equal volumes of each faction were analyzed by SDS-PAGE using antibodies against flotillin 1 (1:2000, 610820 BD Biosciences, Heidelberg, Germany), VE-cadherin (1:1000, sc-28644 Santa Cruz, Darmstadt, Germany) and N-cadherin (1:1000, 33-3900 lifetechnologies, CA, USA).

Test [2] deals with retinas from 7 month old wild-type mice. Kind of test: Retinal explants, ex vivo retina whole mount model. It counts as cell-based, mouse. To be noted: ex vivo organ culture, 4 day period, 5 μmol/L. Here is the method: Eyes from 7 months old animals were enucleated and immersed in ice-cold HBSS containing penicillin (100 U/mL) and streptomycin (100 μg/mL). Retinas were carefully dissected under stereomicroscope and divided into four quadrants with four deep radial incisions. The explants were transferred onto tissue culture inserts (0.4 μm pore, Millipore; Cork, Ireland) with the retinal ganglion cell side facing up. The inserts were placed into the wells of a 6-well plate. A serum free retinal explant media (Neurobasal A, Invitrogen) supplemented with 2% B27 (Invitrogen), 1% N2 (Invitrogen), L-glutamine (0.8 mmol/L), penicillin (100 U/mL), and streptomycin (100 μg/mL) were added to the bottle of the wells and 3 μL of media was dropped on top of the retina to keep it moist. […] After 4 days, retinas were fixed and processed as described above.

Test [3] deals with pericytes. Kind of test: N-cadherin internalization assay. To be noted: 3 μmol/L, 3 hours (not shown). It counts as cell-based, human. Here is the method:
(§1) VE-cadherin internalization was determined as described^40. Endothelial cells were cultured on culture slides (BD, Heidelberg, Germany) coated with crosslinked gelatin until confluent and starved with 2% FCS overnight. Cells were then incubated with antibody against extracellular domain of human VE-cadherin (clone BV6, ALX-803-305 Enzo Life Sciences, Lörrach, Germany) at 4° C. for 1 hour in MCDB131 with 1% BSA medium. Unbound antibody was removed by rinsing cells with ice-cold MCDB131 medium. […] To block the degradation of internalized VE-cadherin chloroquine (300 μmol/L) was be added to the incubation medium. To assess internalized endogenous VE-cadherin cells were washed with ice-cold acid wash buffer (Hanks buffer, pH=2.7, containing 25 mmol/L glycine and 1% BSA) to assess total VE-cadherin cells were rinsed with ice-cold neutral washing buffer (Hanks buffer with 1% BSA, pH=7.4). Cells were fixed with 4% PFA for 15 minutes at 4° C. and then processed for immunofluorescence. To assess N-cadherin internalization, pericytes were incubated with an antibody against the extracellular domain of human N-cadherin (clone 8C11, 350802 BioLegend, CA. USA) at 4° C. for 1 hour in DMEM containing 1% BSA. […] Samples were imaged with an SP8 confocal microscope (Leica) and internalized particles were quantified using ImageJ (NIH) software.

Another test has as its system human endothelial cells. Kind of test: VE-cadherin staining and internalization in cultured endothelial cells. The class given is cell-based. Particulars: 3 hours; for internalization of VE-cadherin: in the presence of t-AUCB (10 μmol/L), pre-labelled antibody and immunoprecipitation. The procedure:
Cells were fixed with 4% PFA for 10 min at room temperature. After washing with PBS samples were blocked and permeabilized with 1% BSA, 5% horse serum, 0.5% Triton X-100 at room temperature for 2 hours or at 4° C. overnight before being exposed to primary antibody (4° C., overnight). After extensive washing and exposure to Alexa Fluor-coupled secondary antibody (1:200, 2 hours, room temperature) samples were mounted in fluorescent mounting medium and analyzed with a confocal microscope; Leica SP8 confocal microscope and LASX software (Wetzlar, Germany) or Carl Zeiss LSM-780 and ZEN software (Jena, Germany) as described^6′^32.
as §1, with “immunofluorescence.” for “immunofluorescence. To assess N-cadherin internalization, pericytes were incubated with an antibody against the extracellular domain of human N-cadherin (clone 8C11, 350802 BioLegend, CA. USA) at 4° C. for 1 hour in DMEM containing 1% BSA.”
Confluent cultures of human endothelial cells were incubated with antibodies recognizing the extracellular domains of human VE-cadherin (BV6 antibody) at 4° C. […] Samples were washed with lysis buffer and analyzed by SDS-PAGE.

Test [4] relates to murine brain microvascular endothelial cells. The experiment in a line: Transendothelial electrical resistance (TEER). It counts as cell-based, mouse. Particulars: 19,20-EDP/19,20-DHDP 3 μmol/L, VEGF 20 ng/ml, 24 hours. Here is the method:
Impedance measurements were performed using isolated murine brain microvascular endothelial cells with a cellZscope device (nano-Analytics) as described^38. […] Measurements were performed four times in quadruplicate with endothelial cells from four different cell preparations.

The target in the next test is γ-secretase (Homo sapiens, UniProt P49768). To be noted: by redistribution of PS1 out of lipid rafts, retina; cited from earlier work.
Test [5] deals with pericytes. The experiment in a line: In vitro pericyte migration on endothelial cell monolayer. It counts as cell-based, human. Particulars: 3 μmol/L. The procedure: Human umbilical vein endothelial cells were isolated and cultured as described^37, seeded on μ-slides (ibidi, Martinsried, Germany) and grown to confluence. Pericytes were labeled with cell tracker green (Invitrogen) and added to the endothelial cell monolayer. Cells were treated with either solvent (0.03% DMSO), 19,20-EDP (3 μmol/L), 19,20-DHDP (3 μmol/L). Cells were incubated in an IncuCyte imaging system (Essen Bioscience) that took photographs automatically every 15 minutes for 48 hours. Pericyte movement on top of the endothelial cell monolayer were tracked manually and analyzed with Image J (NIH, Bethesda, Md., USA). In some experiments pericytes were treated with small interfering RNA directed against N-cadherin (sc-29403, Santa Cruz). Transfection was performed with lipofectamine 2000 (Invitrogen) following the manufacturer's instructions and a scrambled control siRNA was used as control.

The target of a further test is T1, sEH (Homo sapiens, UniProt P34913).
T1 sequence (P34913 1-555): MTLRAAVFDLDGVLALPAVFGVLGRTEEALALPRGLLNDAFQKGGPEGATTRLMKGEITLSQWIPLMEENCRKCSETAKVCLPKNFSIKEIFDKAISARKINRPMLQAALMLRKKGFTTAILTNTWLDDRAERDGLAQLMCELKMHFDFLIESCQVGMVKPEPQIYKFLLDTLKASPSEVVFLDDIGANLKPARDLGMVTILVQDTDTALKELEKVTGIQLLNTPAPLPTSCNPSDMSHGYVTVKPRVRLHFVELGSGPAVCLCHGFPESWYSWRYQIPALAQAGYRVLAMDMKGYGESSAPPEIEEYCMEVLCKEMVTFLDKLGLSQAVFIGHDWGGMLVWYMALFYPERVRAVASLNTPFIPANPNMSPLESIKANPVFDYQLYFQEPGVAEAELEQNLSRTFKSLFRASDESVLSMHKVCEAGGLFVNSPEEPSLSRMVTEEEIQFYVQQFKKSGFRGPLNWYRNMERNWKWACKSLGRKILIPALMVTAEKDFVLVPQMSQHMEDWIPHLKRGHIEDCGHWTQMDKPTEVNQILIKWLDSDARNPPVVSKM
Particulars: cited from earlier work.

In a further test the test system is Ins2Akita mice. To be noted: mouse, in vivo.
Test [6] deals with retinas from wild-type and Ins2Akita mice. Kind of test: Retinal growth factor and Notch gene expression in mice treated with sEH inhibitor. The class given is in vivo, mouse. Here is the method: Total RNA from retinas was extracted using an RNeasy kit (QIAGEN, Hilden, Germany), and equal amounts (1 μg) of total RNA was reverse transcribed (Superscript III; Invitrogen). Gene expression levels were detected using SYBR Green (Absolute QPCR SYBR Green Mix; Thermo Fisher Scientifc). The relative expression levels of the different genes studied was calculated using the 2^−ΔΔCt method with the 18S RNA as a reference.

For `CCC1OC1CC=CCC=CCC=CCC=CCC=CCCC(=O)O` (stereo not shown) [19,20-EDP, 19,20 epoxydocosapentaenoic acid], in test [1], the “N-cadherin expression in cocultured cells” value is reported as “without effect”; the “lipid raft association and membrane presentation of N-cadherin” value was “not”; the “association (co-precipitation) of PS1 with N-cadherin and VE-cadherin” value (“association (co-precipitation) of PS1” below) was “without effect”. Also, in test [2], the “capillary pericyte loss and pericyte migration” value is “largely ineffective”. Besides, the N-cadherin internalization result in the test with pericytes [3] is recorded as “not”. For the same compound, the “internalization of VE-cadherin” value with human endothelial cells is reported as “not”.

Consider “19,20-dihydroxydocosapentaenoic acid [19,20-DHDP]”, for which the transendothelial electrical resistance entry in test [4] is given as “decreased”. Moreover, in test [1], the “N-cadherin expression in cocultured cells” value is listed as “decreased”; the “lipid raft association and membrane presentation of N-cadherin” value is “disrupt”; the “association (co-precipitation) of PS1” value is listed as “attenuated”; the “association of p120 catenin with N- or VE-cadherin” value is “did not influence”. Further, the γ-secretase activity result on γ-secretase is given as “inhibit”. The “capillary pericyte loss and pericyte migration” value in test [2] is recorded as “induced”. The N-cadherin internalization entry in the test on pericytes [3] is recorded as “induce”. The “VE-cadherin staining of confluent endothelial cells” value with human endothelial cells (3 μmol/L) is “discontinuous”. In the test with human endothelial cells, the “internalization of VE-cadherin” value is on record as “detected”. In addition, the pericyte motility result in the test with pericytes [5] is “increase”.

As for VEGF, the transendothelial electrical resistance entry in test [4] is “alterations induced by 19,20-DHDP were however less pronounced than those elicited by vascular endothelial cell growth factor”. Also, in test [1], the “N-cadherin expression in cocultured cells” value was “without effect”; the “association (co-precipitation) of PS1” value was “attenuated”; the “association of p120 catenin with N- or VE-cadherin” value was “decreased recovery”.

As to `CCCCCCCCCCCCNC(=O)NC12CC3CC(CC(C3)C1)C2` [ADU, N-Adamantyl-N′-dodecyl urea], the “activity on sEH” value on sEH was “particularly high activity”.

`O=C(NC12CC3CC(CC(C3)C1)C2)N[C@H]1CC[C@H](Oc2ccc(C(=O)O)cc2)CC1` (relative stereo) [t-AUCB, trans-4-[4-(3-adamantan-1-ylureido)cyclohexyloxy]-benzoic acid]: in the test with Ins2Akita mice, the “N-cadherin expression in retinas” value is given as “largely maintained”; the “co-localization of VE-cadherin and N-cadherin with PS1 in retinas” value is given as “maintained”; the “loss of desmin positive cells in retinas” value is on record as “prevented”. Besides, in test [6], the “Hey1 and Jagged 1 expression” value is given as “tend to increase”; the “PDFG receptor β levels in retinas” value is reported as “failed to significantly alter”; the “PDGFB expression in retinas” value is on record as “increased”.
